Results published in patent publication US9540391B2, “Isomannide derivatives as inhibitors of soluble epoxide hydrolase” (SANOFI, priority 2013, dated 2017).
Where a name gives a salt, the structure may show the parent alone.

The compounds below were run against T1, recombinant sEH (Homo sapiens, UniProt P34913) (assay: biochemical screening assay for inhibition of soluble epoxide hydrolase (fluorometric, Phome substrate)).
T1 construct: made in house; host or cells: Sf9 insect cells
T1 sequence (P34913 1-555): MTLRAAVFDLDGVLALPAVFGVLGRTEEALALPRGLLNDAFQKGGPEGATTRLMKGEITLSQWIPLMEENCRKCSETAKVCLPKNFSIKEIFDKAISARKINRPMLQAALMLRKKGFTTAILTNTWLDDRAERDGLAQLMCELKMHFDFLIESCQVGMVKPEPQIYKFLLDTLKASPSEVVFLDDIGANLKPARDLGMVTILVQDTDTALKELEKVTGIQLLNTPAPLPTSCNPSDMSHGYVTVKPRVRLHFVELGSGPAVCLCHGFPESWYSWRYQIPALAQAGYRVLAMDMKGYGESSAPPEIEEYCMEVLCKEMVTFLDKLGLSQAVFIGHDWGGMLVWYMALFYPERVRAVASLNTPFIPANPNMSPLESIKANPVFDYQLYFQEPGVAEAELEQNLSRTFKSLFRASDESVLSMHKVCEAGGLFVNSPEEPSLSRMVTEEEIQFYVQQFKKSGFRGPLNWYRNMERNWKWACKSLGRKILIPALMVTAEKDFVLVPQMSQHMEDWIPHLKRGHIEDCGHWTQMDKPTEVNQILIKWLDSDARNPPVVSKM
Procedure: The ability of the compounds of the formula I to inhibit soluble epoxide hydrolase can be determined as follows:
Compounds were tested in a biochemical screening assay using recombinant sEH purified from Sf9 insect cells and an artificial substrate, (3-phenyl-oxiranyl)-acetic acid cyano-(6-methoxy-naphtalen-2-yl)-methyl ester, Phome. The biochemical assay was performed in analogy to a fluorometric method described in the literature (P. D. Jones et al., Anal. Biochem. 2005, 343, 66-75). The assay principle bases on the sEH-catalyzed hydrolysis of an artificial α-cyano-ester substrate. 0-deacetylation liberates a cyanohydrin intermediate that rapidly decomposes to the highly fluorescent 6-methoxy-2-naphtaldehyde. To discriminate sample autofluorescence, the assay was carried out as a kinetic measurement with two time points. The first measurement is performed immediately before addition of the substrate and the second measurement is done after completion of the assay. The assay format is either in 96- or in 384-well format. Details of the assay using a 96-well plate format are described below. 40 μL recombinant sEH enzyme and 5 μL test compound are pre-incubated for 15 minutes at 30° C. Following pre-incubation, the reaction is started by addition of 5 μL Phome. The assay mixture containing 2 nM final sEH concentration, test compound ranging in a concentration from 0.0001-10 μM and 5 μM Phome is incubated for 60 minutes at 30° C.
Fluorescence can be measured with any suitable detector for instance a TECAN Safire or Tecan Ultra at […]. % inhibition of recombinant sEH activity is used for calculation of corresponding IC50 values as illustrated and described in the examples.
The NCBI gene bank reference sequence with the accession number NM_001979 for EPHX2/sEH was applied for recombinant protein production:
The following commercially available materials have been used: • Incubation reagent: 25 mM Hepes (Sigma-Aldrich, Cat. No H-3375), 0.01% bovine albumin (Sigma-Aldrich Cat. No PA9205) • Substrate: 3-Phenyl-oxiranyl)-acetic acid cyano-(6-methoxy-naphtalen-2-yl)-methyl ester, Phome (Biozol Cat. No 10003134) • Microtiter plates: 96-well plates (Greiner Cat. No 655180; Costar Cat. No 3915)

| IC50 | SMILES |
| --- | --- |
| 32 nM | CO[C@H]1COCC[C@H]1NC(=O)N[C@H]1CO[C@H]2[C@@H]1OC[C@@H]2Oc1cccnc1C [Example 93, (R)-1-((R)-3-methoxy-tetrahydro-pyran-4-yl)-3-[(3S,3aR,6S,6aS)-6-(2-methyl-pyridin-3-yloxy)-hexahydro-furo[3,2-b]furan-3-yl]-urea] |
| 1 nM | O=C(NC1CCCCC1)N[C@H]1CO[C@H]2[C@@H]1OC[C@@H]2Oc1ccc(N2CCCC2)nc1 [Example 70, 1-cyclohexyl-3-[(3S,3aR,6S,6aS)-6-(6-pyrrolidin-1-yl-pyridin-3-yloxy)-hexahydro-furo[3,2-b]furan-3-yl]-urea] |
| 2 nM | O=C(NC1CCCCC1)N[C@H]1CO[C@H]2[C@@H]1OC[C@@H]2Oc1cccc(N2CCCCC2)c1 [Example 75, 1-cyclohexyl-3-[(3S,3aR,6S,6aS)-6-(3-piperidin-1-yl-phenoxy)-hexahydro-furo[3,2-b]furan-3-yl]-urea] |
| 30 nM | O=C(NC1CCCCC1)N[C@H]1CO[C@H]2[C@@H]1OC[C@@H]2Oc1cccc(N2CCNCC2)c1 [Example 142, 1-Cyclohexyl-3-[(3S,3aR,6S,6aS)-6-(3-piperazin-1-yl-phenoxy)-hexahydro-furo[3,2-b]furan-3-yl]-urea; trifluoroacetate] |
| 1160 nM | Cc1ncccc1O[C@H]1CO[C@H]2[C@@H]1OC[C@@H]2NC(=O)NC1COC(C)(C)OC1 [Example 80, 1-(2,2-dimethyl-[1,3]dioxan-5-yl)-3-[(3S,3aR,6S,6aS)-6-(2-methyl-pyridin-3-yloxy)-hexahydro-furo[3,2-b]furan-3-yl]-urea] |
| 2 nM | O=C(NC1CCCCC1)N[C@H]1CO[C@H]2[C@@H]1OC[C@@H]2Oc1ccc(F)c(Cl)c1 [Example 29, 1-[(3S,3aR,6S,6aS)-6-(3-Chloro-4-fluoro-phenoxy)-hexahydro-furo[3,2-b]furan-3-yl]-3-cyclohexyl-urea] |
| 72 nM | Cc1cc(C)cc(NC(=O)N[C@H]2CO[C@H]3[C@@H]2OC[C@@H]3C#Cc2ccsc2)c1 [Example 302, 1-(3,5-Dimethyl-phenyl)-3-((3S,3aR,6S,6aR)-6-thiophen-3-ylethynyl-hexahydro-furo[3,2-b]furan-3-yl)-urea] |
| 1 nM | COc1ccc(O[C@H]2CO[C@H]3[C@@H]2OC[C@@H]3NC(=O)NC2CCCCC2)cc1 [Example 18, 1-Cyclohexyl-3-[(3S,3aR,6S,6aS)-6-(4-methoxy-phenoxy)-hexahydro-furo[3,2-b]furan-3-yl]-urea] |
| 123 nM | O=C(Nc1cccc(F)c1)N[C@H]1CO[C@H]2[C@@H]1OC[C@@H]2C#Cc1ccccc1 [Example 294, 1-(3-Fluoro-phenyl)-3-((3S,3aR,6S,6aR)-6-phenylethynyl-hexahydro-furo[3,2-b]furan-3-yl)-urea] |
| 11 nM | O=C(NC1CCN(C(=O)C(F)(F)F)CC1)N[C@H]1CO[C@H]2[C@@H]1OC[C@@H]2Oc1ccc(F)cc1 [Example 157, 1-[(3S,3aR,6S,6aS)-6-(4-Fluoro-phenoxy)-hexahydro-furo[3,2-b]furan-3-yl]-3-[1-(2,2,2-trifluoro-acetyl)-piperidin-4-yl]-urea] |
| 103 nM | O=C(NC1CCOCC1)N[C@H]1CO[C@H]2[C@@H]1OC[C@@H]2Oc1ccc(F)cc1 [Example 170, 1-[(3S,3aR,6S,6aS)-6-(4-Fluoro-phenoxy)-hexahydro-furo[3,2-b]furan-3-yl]-3-(tetrahydro-pyran-4-yl)-urea] |
| 1 nM | COC(=O)c1cncc(O[C@H]2CO[C@H]3[C@@H]2OC[C@@H]3NC(=O)NC2CCCCC2)c1 [Example 111, 5-[(3S,3aS,6S,6aR)-6-(3-Cyclohexyl-ureido)-hexahydro-furo[3,2-b]furan-3-yloxy]-nicotinic acid methyl ester] |
| 2 nM | Cc1cc(C)c(O[C@H]2CO[C@H]3[C@@H]2OC[C@@H]3NC(=O)NC2CCCCC2)cn1 [Example 39, 1-Cyclohexyl-3-[(3S,3aR,6S,6aS)-6-(4,6-dimethyl-pyridin-3-yloxy)-hexa-hydro-furo[3,2-b]furan-3-yl]-urea] |
| 41 nM | Cc1ncccc1O[C@H]1CO[C@H]2[C@@H]1OC[C@@H]2NC(=O)NC1CCCN(S(C)(=O)=O)C1 (stereo partly drawn) [Example 86, 1-(1-Methanesulfonyl-piperidin-3-yl)-3-[(3S,3aR,6S,6aS)-6-(2-methyl-pyridin-3-yloxy)-hexahydro-furo[3,2-b]furan-3-yl]-urea] |
| 1 nM | Cc1ncccc1O[C@H]1CO[C@H]2[C@@H]1OC[C@@H]2NC(=O)NCc1cc(F)ccc1OC(F)(F)F [Example 279, 1-(5-Fluoro-2-trifluoromethoxy-benzyl)-3-[(3S,3aR,6S,6aS)-6-(2-methyl-pyridin-3-yloxy)-hexahydro-furo[3,2-b]furan-3-yl]-urea] |
| 423 nM | O=C(Nc1ccccc1)N[C@H]1CO[C@H]2[C@@H]1OC[C@@H]2/C=C\c1ccsc1 [Example 337, 1-Phenyl-3-[(3S,3aR,6S,6aR)-6-((Z)-2-thiophen-3-yl-vinyl)-hexahydro-furo[3,2-b]furan-3-yl]-urea] |
| 107 nM | CSc1cccc(NC(=O)N[C@H]2CO[C@H]3[C@@H]2OC[C@@H]3C#Cc2ccsc2)c1 [Example 312, 1-(3-Methylsulfanyl-phenyl)-3-((3S,3aR,6S,6aR)-6-thiophen-3-ylethynyl-hexahydro-furo[3,2-b]furan-3-yl)-urea] |
| 55 nM | Cc1ncccc1OC1COC2C(NC(=O)NCc3ccc(F)cc3)COC12 [Example 180, 1-(4-Fluoro-benzyl)-3-[(3S,3aR,6S,-6aS)-6-(2-methyl-pyridin-3-yloxy)-hexahydro-furo[3,2-b]furan-3-yl]-urea] |
| 51 nM | Cc1ncccc1OC1COC2C(NC(=O)NC34CC5CC(CC(O)(C5)C3)C4)COC12 [Example 193, 1-((1R,3S,5R,7S)-3-Hydroxy-adamantan-1-yl)-3-[(3S,3aR,6S,6aS)-6-(2-methyl-pyridin-3-yloxy)-hexahydro-furo[3,2-b]furan-3-yl]-urea] |
| 22 nM | O=C(Nc1ccc2c(c1)OCCO2)N[C@H]1CO[C@@H]2[C@@H](CCc3ccccc3)CO[C@@H]21 [Example 369, 1-(2,3-Dihydro-benzo[1,4]dioxin-6-yl)-3-((3S,3aR,6S,6aR)-6-phenethyl-hexahydro-furo[3,2-b]furan-3-yl)-urea] |
| 86 nM | Cc1ncccc1O[C@H]1CO[C@H]2[C@@H]1OC[C@@H]2NC(=O)NCCC1CCCCO1 (stereo partly drawn) [Example 235, 1-[(3S,3aR,6S,6aS)-6-(2-Methyl-pyridin-3-yloxy)-hexahydro-furo[3,2-b]furan-3-yl]-3-[2-(tetrahydro-pyran-2-yl)-ethyl]-urea] |
| 1 nM | O=C(NC1CCCCC1)N[C@H]1CO[C@H]2[C@@H]1OC[C@@H]2SC1CCCCC1 [Example 12, 1-cyclohexyl-3-((3S,3aR,6S,6aS)-6-cyclohexylsulfanyl-hexahydro-furo[3,2-b]furan-3-yl)-urea] |
| 48 nM | O=C(Nc1ccc(C(F)(F)F)cc1)NC1COC2C(C#Cc3ccsc3)COC12 [Example 308, 1-((3S,3aR,6S,6aR)-6-Thio-phen-3-ylethynyl-hexahydro-furo[3,2-b]furan-3-yl)-3-(4-trifluoromethyl-phenyl)-urea] |

| SMILES | IC50 |
| --- | --- |
| CCCCOc1ccc(NC(=O)NC2COC3C(CCc4ccccc4)COC23)cc1 [Example 351, 1-(4-Butoxy-phenyl)-3-[(3S,3aR,6R)-6-((S)-phenethyl)-hexahydro-furo[3,2-b]furan-3-yl]-urea] | 161 nM |
